We go through two molecules from PMC9369311, “Examination of Intracellular GPCR-Mediated Signaling with High Temporal Resolution” (International Journal of Molecular Sciences, 2022).

As a reminder, the EC50 is the concentration at which the effect is half-maximal. A higher EC50 goes with weaker potency.

One assay concerns adenylyl cyclases. The assay is described as follows: Stopped-flow Ca2+ fluorescence measurements, flpTM-DmOctβ1 cells, NKH477. In kind it is cell-based, human. As for the experimental part:
In successive stopped-flow measurements, the flpTM-DmOctβ1 cells loaded with Fluo-4 were stimulated with increasing octopamine (1 nM–3 µM) and NKH477 (100 nM–300 µM) concentrations. The fluorescence intensities were monitored over 80 s and 100 s, respectively (Figure 4A1,B1). The fluorescence intensities increased and finally reached a plateau with increasing concentrations of both of the ligands. However, the saturating ligand concentrations differed strongly between octopamine (≥300 nM) and NKH477 (≥100 µM). By plotting the maximal changes in fluorescence (ΔF/F0) against ligand concentrations, concentration–response curves were generated and EC50 values were calculated (Figure 4C). […] As observed for the DmOctα1B cell lines (see Figure 3D), the signal response times of flpTM-DmOctβ1 cells were faster at higher ligand concentrations (Figure 4A2,B2). In Figure 4D, the time until the signals were detected (for details, see Materials and Methods, Section 4.4) are plotted for the ligand concentrations covering the calculated EC50 value (dynamic range) and for saturating concentrations (saturating range). The signal response times of the flpTM-DmOctβ1 cells for octopamine were in the range of 30 s (dynamic range) and 6 s (saturating range), whereas the signal detection upon NKH477 application was observed after 50 s (dynamic range) and 16 s (saturating range). The signal response times were about three- to five-fold faster at the saturating concentrations in comparison to the octopamine and NKH477 concentrations in the dynamic range.
As described for the Fluo-4-loaded flpTM-DmOctβ1 cells, similar experiments were performed with the flpTM-DmOctβ1-GCaMP3.0 cells (Figure 5). The cells were successively mixed with increasing concentrations of octopamine (30 pM–100 nM) or NKH477 (30 nM–100 µM) and the fluorescence intensities were recorded over 100 s. For both of the ligands, increasing ligand concentrations led to an increase in the fluorescence emission finally reaching a plateau (Figure 5A1,B1).
For the stopped-flow measurements, the SFM-400 system (BioLogic, Münster, Germany) was used. The main component of the stopped-flow setup is the SFM-400 module with four 10 mL syringes, which can be filled by external valves. The syringes are driven by step motors. The reactants can be mixed in three individual mixing chambers (M1–M3). The volume between M1 and M2 is 21 µL, and 31 µL between M2 and M3. The observation chamber is a quartz cuvette (FC-15) with a reaction volume of 31 µL, installed behind M3. To avoid fluctuations of the reaction mixture in the cuvette, which might lead to noisy and inconsistent signals, a hard stop valve located behind the cuvette can be closed after injection of the reactants. The stopped-flow module is controlled via a MPS-60 control unit (BioLogic). Data acquisition and operation of the system were performed with the Bio-Kine 32 v4.74 software (BioLogic).
The reactions in the cuvette were analyzed via the changes in the fluorescence. A 150 W Xe/Hg-lamp (ALX-220; BioLogic) was used as a light source for the excitation. The excitation light was guided via a light guide towards the cuvette. To determine the wavelength of the excitation light, a 482 nm bandpass filter (482/35 nm BrightLine® single-band bandpass filter; Semrock, Rochester, NY, USA) was used. A heat protection filter (3 mm; KG1, Schott; Mainz, Germany) was placed between the Xe/Hg-lamp and the excitation filter. The fluorescence was detected with a photomultiplier (PMS 200, BioLogic) installed rectangularly to the light path of the excitation light. Between the cuvette and the photomultiplier tube a 535 nm bandpass emission filter (XF3007 535AF35; Horiba, Oberursel, Germany) was placed to select for the emission light being detected by the photomultiplier. A voltage of 600 V was applied to the photomultiplier.
The fluorescence measurements were performed either directly with the cells expressing GCaMP3.0 or after loading the cells with Fluo-4-AM. […]

Assay [1] relates to cell endogenous adenylyl cyclases. Description: Ca2+ fluorimetry in plate reader (96 MWP), flpTM-DmOctβ1 cells stimulated with NKH477. The settings on record: for logEC50 ± SD: given as logEC50 (negative). The format is cell-based, human. As for the experimental part: In another series of experiments, DmOctβ1 receptor-expressing cell lines were incubated with NKH477, a water soluble agonist of membrane bound adenylyl cyclases, the downstream effectors in DmOctβ1 signaling. Before stimulating the adenylyl cyclase activity, NKH477 has to cross the cell membrane and then binds to the catalytic domain of the enzyme. As before, the flpTM-DmOctβ1 cells were seeded in 96 MWPs and loaded with Fluo-4. In parallel, cells stably co-transfected with GCaMP3.0 were examined (flpTM-DmOctβ1-GCaMP3.0). All of the measurements were performed in the presence of 100 µM IBMX. […] In comparison to the octopamine-evoked responses, the EC50 values for NKH477 differed strongly, with values in the nanomolar range for octopamine and in the micromolar range for NKH477, but confirming the previous data on the octopamine receptors and adenylyl cyclases, respectively. […] Whether this effect was due to differences in the cytosolic distribution of both Ca^2+ detectors and/or the spatial presence of adenylyl cyclase isoforms in membrane domains has not been experimentally addressed.
In this study, we made use of previously established stably transfected cell lines. Briefly, human embryonic kidney cells (HEK293; #85120602, ECACC, Porton Down, Salisbury, UK) were transfected with 10 µg of DmOctα1B receptor-encoding construct by a modified calcium phosphate method. The cell line constitutively expressing the DmOctα1B receptors was propagated in MEM+Glutamax medium containing 10% (v/v) fetal calf serum, 1% (v/v) non-essential amino acids, 1% (v/v) antibiotics/antimycotics, and […] Geneticin (all obtained from ThermoFisher Scientific/Gibco; Dreieich, Germany). A related human embryonic kidney 293-based cell line (HEK293; flpIn cells; Invitrogen/ThermoFisher Scientific; #750-07) that was transfected with a gene encoding a variant of the A2-subunit of the olfactory cyclic nucleotide-gated ion channel (CNG; [31]; flpTM cells, provided by Sibion Biosciences, Jülich, Germany) was transfected with 10 µg of DmOctβ1 receptor-encoding construct. The cell line constitutively expressing the CNG channels and DmOctβ1 receptors was named flpTM-DmOctβ1 and propagated in DMEM+Glutamax medium containing 10% (v/v) fetal calf serum, 1% (v/v) penicillin/streptomycin, and 100 µg/mL Hygromycin, as well as […] Geneticin (all obtained from ThermoFisher Scientific/Gibco). […]
To monitor the intracellular changes of Ca^2+, the cells stably transfected with the genetically encoded calcium indicator GCaMP3.0 (Tian et al., 2009) or loaded with the calcium-sensitive fluorescent dye Fluo-4-AM (Life Technologies/Thermo Fisher Scientific) were analyzed in the plate reader FLUOstar Omega (BMG Labtech, Ortenberg, Germany). […]

The target of the next assay is T1, CNGA2 channel (Bos taurus, UniProt Q03041, T537M).
T1 construct: host or cells: HEK293 flpIn cells (Invitrogen #750-07)
T1 sequence (Q03041 1-663 T537M): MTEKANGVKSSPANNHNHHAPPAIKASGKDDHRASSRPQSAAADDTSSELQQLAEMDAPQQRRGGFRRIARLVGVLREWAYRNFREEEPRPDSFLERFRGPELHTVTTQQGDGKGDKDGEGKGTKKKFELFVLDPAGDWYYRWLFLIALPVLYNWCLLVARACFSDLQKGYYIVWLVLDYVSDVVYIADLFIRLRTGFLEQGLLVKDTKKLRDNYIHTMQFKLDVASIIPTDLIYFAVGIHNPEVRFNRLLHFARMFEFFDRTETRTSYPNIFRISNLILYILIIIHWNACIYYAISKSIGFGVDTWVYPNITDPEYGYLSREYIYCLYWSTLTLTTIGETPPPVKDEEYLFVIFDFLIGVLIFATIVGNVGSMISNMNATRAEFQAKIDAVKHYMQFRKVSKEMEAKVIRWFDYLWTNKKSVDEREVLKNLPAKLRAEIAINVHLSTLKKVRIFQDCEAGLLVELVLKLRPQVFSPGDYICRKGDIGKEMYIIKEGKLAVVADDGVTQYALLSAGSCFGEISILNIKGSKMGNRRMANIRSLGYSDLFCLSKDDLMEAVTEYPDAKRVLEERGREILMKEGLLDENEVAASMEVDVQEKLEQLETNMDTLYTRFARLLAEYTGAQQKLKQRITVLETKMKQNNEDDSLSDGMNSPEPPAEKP
Description: Stopped-flow flash photolysis of caged cAMP in Fluo-4-loaded flpTM-DmOctβ1 cells. In kind it is cell-based, bovine. The conditions noted are these: for cAMP released by photolysis: based on quantum yield. From the text: Neutral density filters that regulate the transmission of light (5%, 25%, 50%, 80%, 100%) were installed, allowing application of different light intensities.
As an integral component of the flpTM-DmOctβ1 cell line, the cAMP-sensitive CNG channel (flpTM; see [32]) enables the detection of cellular cAMP dynamics via mediating cAMP-dependent opening of the channel pore and resulting in Ca^2+ influx. […] A (7-diethylaminocoumarin-4-yl)methyl (DEACM)-modified cAMP was used. The FlpTM-DmOctβ1 cells were loaded with Fluo-4 and DEACM-cAMP. For the stopped-flow measurements, the cells were mixed with ES in the cuvette and after 2 s, a UV-flash was triggered for 10 ms to release cAMP. The fluorescence signals were monitored for 12 s. The time point when triggering the light flash was defined as t = 0. Different concentrations of DEACM-cAMP were used (10 µM, 30 µM, 50 µM, and 100 µM) for loading cells. […] In successive experiments, different light intensities were applied (5%, 25%, 50%, 80%, 100%). The experiments were performed in the presence of 100 µM IBMX to avoid fluctuations in cAMP due to cell-endogenous phosphodiesterases.
For the photolysis of the caged compounds with ultraviolet (UV)-light, a Xe-flash lamp (JML-C2; Rapp Opto Electronics, Wedel, Germany) was coupled to the cuvette via an UV-light permeable light guide (Schott). A UV-2 interference filter was placed between the Xe-flash lamp and light guide to select for the UV-light needed for the photolysis of the caged compounds. Additionally, it prevents the photomultiplier from being hit by light that is able to pass the emission filter. The maximal energy of one light flash at the surface of the cuvette was 107 mJ·cm^−2 (set to C2 and 200 V). Neutral density (ND) filters (AHF Analysentechnik, Tübingen, Germany) could be installed between the interference filter and the Xe-flash lamp to regulate the intensity of the UV-light applied to the cuvette. To maximize the detection of the emission light, a test solution containing 50 nM of fluorescein in ES was added to the cuvette and the light guide was fixed to the Xe/Hg-lamp at a position where the photomultiplier detected maximal intensity.

[2] abbreviates: flpTM-DmOctβ1-GCaMP3.0 cells, 100 µM IBMX.
Setting [3] is: flpTM-DmOctβ1 cells loaded with Fluo-4, 100 µM IBMX.

“And” between values parts separate entries of the source, which are not always exact repeats. Equal entries are not always repeated. “Also recorded” adds a separate entry of the source. Where only a bound is given, the exact number is not on record here.

Regarding `C=C[C@@]1(C)CC(=O)[C@]2(O)[C@@]3(C)[C@@H](O)CCC(C)(C)[C@@H]3[C@H](OC(=O)CCN(C)C)[C@H](OC(C)=O)[C@@]2(C)O1.Cl` [NKH477], the Signal Response Time with adenylyl cyclases (dynamic range (concentrations around EC50), flpTM-DmOctβ1-GCaMP3.0 cells) was 40 s; in the assay with adenylyl cyclases (dynamic range (concentrations around EC50), flpTM-DmOctβ1 cells loaded with Fluo-4) it was 50 s; in the assay with adenylyl cyclases (saturating concentration, flpTM-DmOctβ1-GCaMP3.0 cells, mean ± SEM), 13 s and 12.70 ± 0.52 s; in the assay on adenylyl cyclases (saturating concentration, flpTM-DmOctβ1 cells loaded with Fluo-4, mean ± SEM) it was 13.35 ± 0.82 s; in the assay with adenylyl cyclases (saturating ligand concentration, flpTM-DmOctβ1 cell lines, Fluo-4 and GCaMP3.0), 13 s. Also, the EC50 with adenylyl cyclases (stopped-flow, flpTM-DmOctβ1-GCaMP3.0 cells, mean ± SEM) was 2.1 µM and 2.12 µM; with adenylyl cyclases (stopped-flow, flpTM-DmOctβ1 cells loaded with Fluo-4, mean ± SEM), 3.9 µM and 3.92 µM; in assay [1] (setting [2]), 0.1 µM; in assay [1] (setting [3]), 4.5 µM. For the same molecule, the saturating ligand concentration with adenylyl cyclases (stopped-flow, flpTM-DmOctβ1 cells loaded with Fluo-4) is on record as no less than 100 µM. Also, the “logEC50 ± SD” value in assay [1] (setting [2]) was −6.91 ± 0.03; in assay [1] (setting [3]) it was −5.34 ± 0.09.
Regarding `CCN(CC)c1ccc2c(COP3(=O)OC[C@H]4O[C@@H](n5cnc6c(N)ncnc65)[C@H](O)[C@@H]4O3)cc(=O)oc2c1` (stereo partly shown) [DEACM-cAMP], the “time from light flash to rise in fluorescence (Ca2+ signal)” value on CNGA2 channel (cells loaded with 10 µM DEACM-cAMP, light intensities of 80% and 100%, 10 ms flash, 100 µM IBMX) is given as “approximately 60 ms”. At CNGA2 channel (cells loaded with 30 µM DEACM-cAMP, 10 ms flash, 100 µM IBMX), the “onset of Ca2+ signals after light flash” value is listed as “immediately after the light flash; also recorded: immediately after photolysis”. The “cAMP released by photolysis” value was “approximately 2 µM” on CNGA2 channel (from 10 µM DEACM-cAMP) and roughly 6 µM on CNGA2 channel (from 30 µM DEACM-cAMP).
